Experiment: Lipophilicity (log D7.4), 1-octanol/PBS pH 7.4
Type: physicochemical
Procedure: [^125I]I-NpG-D-PSMA (3.7 kBq) was mixed with equal amounts (3.0 mL) of 1-octanol and PBS buffer (pH 7.4). The mixture was vortexed for 1 min and allowed to stand for 1 min. After repeating the procedure five times, the mixture was centrifuged at 1,500 g (3740, Kubota, Tokyo) for 10 min. Samples (0.2-2 mL) were taken from each phase and their radioactivity was measured with an auto-well γ-counter. The partition coefficient was determined by calculating the ratio of the counts per minute in the 1-octanol phase to that in the buffer phase and expressed as common logarithm. The results represent the mean of three measurements.

## O=C(O)CCC(NC(=O)NC(CCCCNC(=O)C(Cc1ccc2ccccc2c1)NC(=O)C(CCC(=O)O)NC(=O)C(CCC(=O)O)NC(=O)COCC(CO)(CO)C[125I])C(=O)O)C(=O)O [[^125I]I-NpG-D-PSMA]
  logD: -3.14 ± 0.03
